Tests used:
[1] = test system: 4T1 tumor microenvironment; assay: FACS analysis of immune cells in orthotopic 4T1 tumors (Example 4.4); type: in vivo, mice
Method: Freshly isolated orthotopic 4T1 tumors were prepared for FACS analysis on day 5 (week 1) and day 12 (week 2) post miRNA-193a treatment when they reached a min tumor volume (TV) of 300 mm^3. Tumor samples were digested using murine tumor dissociation kit from Miltenyi (CAT #130-096-730). Following tumor cell digestion cells were re-suspended in 200 μl staining buffer with […] Fc-Block (Mouse BD Fc Block™ CAT #553141) and incubated at 4° C. for 15 minutes in the dark. Different markers (CD45, CD3, CD4, CD8, FoxP3, CD335, F4/80, CD11b, Gr-1, CD73, LAG3/CD223, IL-2, IFN-r, PD-1, L/D stain) have been used for FACS analysis. Antibody mixture for all markers except IL-2, IFN-r and LAG3 were diluted in Fc blocking buffer for each sample and stained for 30 min on ice, in the dark. Then, cells were gently washed by adding 2 ml of ice cold PBS to each tube. Each tube was centrifuged at 300 g for 5 minutes and supernatant was discarded. To detect intracellular markers (IL-2, IFN-r and LAG3) stimulation of the digested cells was performed. To do so, Leukocyte Activation Cocktail, with BD GolgiPlug™ was used. The cocktail was thawed at 37° C. in a water bath rapidly and for every 1 mL of cell culture (e.g., ˜10^6 cells/mL) 2 μL of cocktail was added and mixed thoroughly. To stimulate, cell culture mix was placed in a 37° C. humidified CO2 incubator for 4-6 hr. Then the cells were harvested and washed with FACS staining buffer. For staining, cell pellet was resuspended with pulse vortex and 200 ul of prepared Fixation/Permeabilization was added to each sample. Samples were incubated for 10 min at RT in the dark. Then, samples were washed twice by adding 1 ml of 1× Permeabilization Buffer (made from 10× Permeabilization Buffer, diluted with distilled H2O) followed by centrifugation and decanting of supernatant and each sample was incubated with the antibody cocktail containing FoxP3, IFN-r and IL-2 in 1× Permeabilization Buffer and incubated at RT for 30 minutes in the dark. Finally, cells were resuspended in […] of staining Buffer and analyzed on cytometer. The data was analysed by Kaluza flow cytometry software (from Beckman Coulter).
Six to eight weeks old female BALB/c mice (Shanghai Lingchang Bio-Technology Co. Ltd, Shanghai, China) were injected with 3×10^5 4T1 mouse tumor cells in PBS (0.1 mL/mouse) into the mammary fat pad. At the time of randomization, the TVs ranged between 69.9 and 173.9 mm3 (median 105.7, IQR=100.7-125.4). Body weights and TVs (caliper measurements) were determined 2-3 times/week. After randomization (day 9 after tumor inoculation) mice received different treatments under different dosing regimen (see Table 9 for dosing scheme). For all groups, 4 mice are sacrificed 48h after the 2nd miRNA-193a injection in the first week and in the 2nd week. Primary tumors were surgically removed from the mammary fat pad on day 20 after inoculation. After a recovery period of 3 days, treatment was resumed for 6 more weeks until day 63. Re-growth of (distant) tumors was monitored in addition to BW, and mice were sacrificed if end-points were met.

A2058 cells = assay: In vitro transwell migration assay; type: cell-based, human; details: miRNA-193a-3p at 10 nM; vs scrambled
Method: To check the migratory ability of cells, a Boyden Chamber assay was performed, which is based on a chamber of two medium-filled compartments separated by a […] pore size membrane (BD falcon). In this assay, depending on cell type 60,000-120,000 cells were seeded in the upper compartment of the membrane in serum free medium and were allowed to migrate through the pores of the membrane into the lower compartment, in which serum is present in the media. The serum acts as a chemoattractant. After an appropriate incubation time, the membrane between two compartments was fixed, stained and 6 different images from each membrane were taken. The number of migratory cells were counted using Image J analysis.
To assess the impact of miRNA-193a-3p on adenosine generation, the release of free phosphate in A2058 melanoma cells was measured as a read out for ATP, ADP, and AMP dephosphorylation in supernatants. […] Similar results were found by measuring the direct amount of adenosine in cell culture supernatants (FIG. 16B). Further, the role of miRNA-193a in A2058 cancer cell migration was investigated.

A549, H460 = assay: Cell viability (MTS assay or cell count); type: cell-based, human; details: 10 nM; NSCLC A549, H460; normalized to mock
Method: Depending on cancer cell type 3000-6000 cells were seeded in a 96 well plate. After cells attached, they were transfected with different concentrations of miRNA-193a and viability was measured at different time points. Viability measurement was performed using CellTiter 96 AQueous One Solution Cell Proliferation Assay (Promega). 20 μL of MTS reagent was added to 100 μL of media in each well in 96-well plate and incubated for 2 hours at 37° C. Absorbance was measured at 490 nm for each sample in 96 well plate reader.
Different biological effects of miRNA-193a-3p have been tested in various cancer cell lines (see Table 13). For this, various cells were treated with miRNA-193a at different concentrations (1, 3, 10 nM). For all experiments controls (untreated, mock and scrambled) were measured. […] Data shown in Table 13 are the results for miRNA-193a at 10 nM concentration at indicated time points. All the results have been quantified and normalized to the mock control.
miRNA-193a treatment in various cancer cell lines decreased cell viability over time as measured by either an MTS assay or by cell count. It enhanced apoptosis induction over time as measured by a caspase 3/7 apoptosis assay. […] It is of note that due to intrinsic characteristics and gene mutation status of each cell line, performing one method to detect apoptosis is not always ideal for all cell lines.

HEP3B, SNU449, A2058 = assay: Cell cycle distribution by imaging of nuclei (Example 4.9); type: cell-based; details: 1 nM, 3 nM and 10 nM, concentration-dependent; vs mock
Method: Depending on cancer cell type 3000-6000 cells were seeded in a 96 well plate. After cells attached, they were transfected with different concentrations of miRNA-193a and cell cycle profile was measured at different time points. At selected time points media was aspirated from wells and DNA staining solution (Hoescht 33342/Saponin/PFA) was added to each well and incubated for 2 hours at 37° C. Then, cell images were taken using Thermo Celllnsite in which nuclei were specified and nuclei intensity were measured. Nuclei intensity was analyzed using program R to determine the different phases of the cell cycle (G0/G1, S, G2/M) based on the DNA content.
Similar phenotype has been observed in Panc1 (pancreatic cancer cell) as well as H1975 (lung cancer cell) (data not shown). […] MPP2 and STMN1 associate with cytoskeleton and therefore regulate cell division and proliferation at the G2/M phase, while YWHAZ and CCNA2 play roles in regulation of G2/M phase checkpoint by binding and sequestering the cyclin-dependent kinases.

miRNA-193a: duplex of the miRNA-193a-3p of SEQ ID NO: 218 (mimic, sense) with antisense strand SEQ ID NO: 219; naked in vitro, formulated in vivo (sense UGGGACUUUGUAGGCCAGUUTT; antisense AACUGGCCUACAAAGUCCCAGU; chemistry not given here; listed as Homo sapiens)
Ratio of CD8+ T cells/Treg cells ([1]; 2 weeks post start of treatment, 10 mg/kg BIW iv, diamino lipid nanoparticles): > 1 | Regulatory T cell population (FOXP3+/LAG3+) ([1]; after 1 week): significant decrease | T-cell function (production of IFNγ and IL-2) ([1]; after 1 week, CD45+ tumor cell population): significant increase | Regulatory T cell population (FOXP3+/LAG3+) ([1]; after 2 weeks): significant decrease | T-cell frequency (CD8+) ([1]; after 2 weeks): significant increase | T-cell function (IFNγ) ([1]; after 2 weeks): mild induction | CD73 (NT5E) expression level in immune cells ([1]; week 1 and week 2, 48h after administration): down-regulated | Migration ability of A2058 cells (A2058 cells): significantly suppressed migration ability | Viability (96 h) (A549, H460): ↓↓ (Viability < 50%) | G2/M arrest (HEP3B, SNU449, A2058): enhances the G2/M arrest

— US20210038732A1, “ANTICANCER MICRORNA AND LIPID FORMULATIONS THEREOF” (INTERNA TECHNOLOGIES B.V., priority 2018, published 2021)
